Assay results as given in US20040002479A1, “Peptide analogues and uses thereof” (priority 2002, published 2004).

Assay: Hydroxyapatite assay (hydroxyapatite adsorption chromatography, bone-targeting potential)
Assay type: physicochemical
Conditions: corrected K=(retention time-void time)/void; TSK-Gel HA 1000 HPLC column; linear gradient 10 mM to 500 mM sodium phosphate, 0.15 N NaCl, pH 6.8
Protocol: Hydroxyapatite is the principal mineral component of bone. Hydroxyapatite adsorption chromatography is used as an assay to evaluate the bone-targeting potential of both individual bone-targeting moieties (“monomers”) and of pharmaceuticals incorporating bone-targeting groups.
Method: The rentention time of a test compound is measured using a linear gradient from 10 mM sodium phosphate, 0.15 N NaCl, pH=6.8 to 500 mM sodium phosphate, 0.15 N NaCl, […] on a TSK-Gel HA 1000 high pressure liquid chromatography column (7.5 mm×75 mm). The rentention time of the compound is expressed in terms of K=(retention time-void time)/void. This K value is corrected using two reference compounds to correct from inter-column and inter-system variation to obtain a K′ value.
Reference Compounds: K′ values were determined for known bone targeted compounds, the bisphosphonate, alendronate and tetracycline.

K′ value: 3.7
SMILES: NCCCC(O)(P(=O)(O)O)P(=O)(O)O [Alendronate, alendronate]
